Reference: patent publication US10093653B2, “Vitamin D receptor-coregulator inhibitors” (UWM Research Foundation, Inc., priority 2011, dated 2018)
In brackets after ≈: the same amount, converted by molar mass.

Legend:
TRPV6 in DU145 cells = assay: TRPV6 expression, semi-quantitative RT-PCR; assay type: cell-based; conditions: 20 nM
CYP24A1 = CYP24A1 expression levels; assay type: cell-based; conditions: compound in presence and absence of 1,25-(OH)2D3
[1] = PAMPA
HEK293T cells = assay: Toxicity by Cell-Titer Glo after the FRET assay; assay type: cell-based; conditions: for Toxicity (%): Conc. 62.5 μM
[2] = 12 h, pH 7.4
SKOV-3 cells = assay: Western blots for phospho-p38 MAPkinase and phospho SAPK/JNK; assay type: cell-based; conditions: SKOV-3, 25 uM, within 24 hours
From the text: Vitamin-d/VDR signaling protects the cancer cells from reactive oxygen species (ROS) induced cellular damages.

ECC-1 = assay: Cytotoxicity, MTS assay; assay type: cell-based; conditions: ECC-1 endometrial cancer cell-line, within 48 hours
VDR in SKOV-3 cells = assay: VDR expression, western blotting of whole cell lysate; assay type: cell-based; conditions: SKOV-3, 24 hours; 31b 25 and 50 uM, 32b 50 uM
Procedure: Expression of VDR was analyzed by western blotting of whole cell lysate using monoclonal antibody against VDR (Neomarker, Calif. cat no-RT-200PO).

SKOV-3 = assay: Cytotoxicity, MTS assay; assay type: cell-based; conditions: SKOV-3, within 48 hours
OVCAR-8 = assay: Cytotoxicity, MTS assay; assay type: cell-based; conditions: OVCAR-8, within 48 hours
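Wherever Permeability Log(Pe) is given: passive permeability measured by parallel artificial membrane permeability assay, each experiment run in triplicate.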
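Wherever Permeability values (log Pe) of standards is given: passive permeability measured by parallel artificial membrane permeability assay, each experiment run in triplicate.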

| Structure (SMILES) | Permeability Log(Pe) [1] | Solubility [2] | also measured |
| --- | --- | --- | --- |
| C=C1/C(=C\C=C2/CCC[C@]3(C)[C@@H]([C@H](C)CCCC(C)(C)O)CC[C@@H]23)C[C@@H](O)C[C@@H]1O [1,25-(OH)2D3, 1,25-dihydroxyvitamin D3, reference compound] |  |  | TRPV6 expression with VDR ligand (TRPV6 in DU145 cells): up-regulated |
| c1ccc(NC(c2ccccc2)c2c[nH]c3ccccc23)cc1 (stereo not drawn) [Compound 1, N-((1H-indol-3-yl)(phenyl)methyl)aniline] |  |  | Modulation of CYP24A1 expression (CYP24A1): no modulation of CYP24A1 |
| COc1ccc(C(Nc2ccccn2)c2c(C)[nH]c3ccccc23)cc1 (stereo not drawn) [Compound 11] | −6.25 cm/s |  | Toxicity (%) (HEK293T cells): 100% |
| Cc1ccc(C(Nc2ccccn2)c2c(C)[nH]c3ccccc23)cc1 (stereo not drawn) [Compound 12] | −6.10 cm/s |  | Toxicity (%) (HEK293T cells): 90% |
| COc1cccc(C(Nc2ccccn2)c2c(C)[nH]c3ccccc23)c1 (stereo not drawn) [Compound 13] | −6.12 cm/s |  | Toxicity (%) (HEK293T cells): 60% |
| Cc1[nH]c2ccccc2c1C(Nc1ccccn1)c1cccc(Br)c1 (stereo not drawn) [Compound 14] | −6.11 cm/s |  | Toxicity (%) (HEK293T cells): 100% |
| Cc1[nH]c2ccccc2c1C(Nc1ccccn1)c1ccc(Br)cc1 (stereo not drawn) [Compound 15] | −6.01 cm/s |  |  |
| Cc1[nH]c2ccccc2c1C(Nc1ccccn1)c1ccc(F)cc1 (stereo not drawn) [Compound 16] | −6.05 cm/s |  | Toxicity (%) (HEK293T cells): 100% |
| Cc1[nH]c2ccccc2c1C(Nc1ccccn1)c1ccc(C(C)C)cc1 (stereo not drawn) [Compound 17] | −6.12 cm/s |  | Toxicity LD50 (given instead of percentages) (HEK293T cells; footnote b, highly active compounds): 18.0^b μM |
| Cc1[nH]c2ccccc2c1C(Nc1ccccn1)c1cccc(Cl)c1 (stereo not drawn) [Compound 18] | −6.01 cm/s |  | Toxicity (%) (HEK293T cells): 100% |
| Cc1[nH]c2ccccc2c1C(Nc1ccccn1)c1cccc(F)c1 (stereo not drawn) [Compound 19] | −5.99 cm/s |  |  |
| CNC(=C[N+](=O)[O-])NCCSCc1ccc(CN(C)C)o1 [Ranitidine, reference compound] |  |  | Permeability values (log Pe) of standards [1]: −8.02±0.074 cm/s |
| NC(=O)N1c2ccccc2C=Cc2ccccc21 [carbamazepine, reference compound] |  |  | Permeability values (log Pe) of standards [1]: −6.81±0.0011 cm/s |

Now from value to compound, other results behind:

| Permeability Log(Pe) [1] | Solubility [2] | Structure (SMILES) | also measured |
| --- | --- | --- | --- |
| −6.00 cm/s | 252.9 µM (≈ 79 µg/mL) | Cc1[nH]c2ccccc2c1C(Nc1ccccc1)c1ccccc1 (stereo not drawn) [Compound 30a, N-((2-methyl-1H-indol-3-yl)(phenyl)methyl)aniline] |  |
| −6.03 cm/s | 93.9 µM (≈ 32.6 µg/mL) | Cc1[nH]c2ccccc2c1C(Nc1ccccc1)c1ccc(Cl)cc1 (stereo not drawn) [Compound 30b, N-((4-chlorophenyl)(2-methyl-1H-indol-3-yl)methyl)aniline] |  |
| −6.10 cm/s | 237.5 µM (≈ 81.3 µg/mL) | COc1ccc(C(Nc2ccccc2)c2c(C)[nH]c3ccccc23)cc1 (stereo not drawn) [Compound 30c, N-((4-methoxyphenyl)(2-methyl-1H-indol-3-yl)methyl)aniline] |  |
| −6.34 cm/s | 175.1 µM (≈ 57.2 µg/mL) | Cc1ccc(C(Nc2ccccc2)c2c(C)[nH]c3ccccc23)cc1 (stereo not drawn) [Compound 30d, N-((2-methyl-1H-indol-3-yl)(p-tolyl)methyl)aniline] |  |
| −6.88 cm/s | 157.7 µM (≈ 56.1 µg/mL) | Cc1[nH]c2ccccc2c1C(Nc1ccccc1)c1ccc(N(C)C)cc1 (stereo not drawn) [Compound 30e, N,N-dimethyl-4-((2-methyl-1H-indol-3-yl)(phenylamino)methyl)aniline] |  |
| −6.08 cm/s | 117.6 µM (≈ 42 µg/mL) | Cc1[nH]c2ccccc2c1C(Nc1ccccc1)c1ccc([N+](=O)[O-])cc1 (stereo not drawn) [Compound 30f, N-((2-methyl-1H-indol-3-yl)(4-nitrophenyl)methyl)aniline] |  |
| −6.40 cm/s | 189.0 µM (≈ 47.3 µg/mL) | Cc1[nH]c2ccccc2c1C(C)Nc1ccccc1 (stereo not drawn) [Compound 30g, N-(1-(2-methyl-1H-indol-3-yl)ethyl)aniline] |  |
| −6.30 cm/s | 67.3 µM (≈ 24.4 µg/mL) | Cc1[nH]c2ccccc2c1C(Nc1ccccc1)c1ccc2ccccc2c1 (stereo not drawn) [Compound 30h, N-((2-methyl-1H-indol-3-yl)(naphthalen-2-yl)methyl)aniline] |  |
| −6.41 cm/s | 31.6 µM (≈ 11 µg/mL) | Cc1[nH]c2ccccc2c1C(Nc1ccccc1)c1ccccc1Cl (stereo not drawn) [Compound 31a, N-((2-chlorophenyl)(2-methyl-1H-indol-3-yl)methyl)aniline] |  |
| −6.30 cm/s | 84.2 µM (≈ 31.7 µg/mL) | COc1ccc(NC(c2ccccc2Cl)c2c(C)[nH]c3ccccc23)cc1 (stereo not drawn) [Compound 31c, N-((2-chlorophenyl)(2-methyl-1H-indol-3-yl)methyl)-4-methoxyaniline] |  |
| −6.45 cm/s | 35.9 µM (≈ 13 µg/mL) | Cc1ccc(NC(c2ccccc2Cl)c2c(C)[nH]c3ccccc23)cc1 (stereo not drawn) [Compound 31d, N-((2-chlorophenyl)(2-methyl-1H-indol-3-yl)methyl)-4-methylaniline] |  |
| −7.28 cm/s | 21.0 µM (≈ 8.19 µg/mL) | Cc1[nH]c2ccccc2c1C(Nc1ccc(N(C)C)cc1)c1ccccc1Cl (stereo not drawn) [Compound 31e, N^1-((2-chlorophenyl)(2-methyl-1H-indol-3-yl)methyl)-N^4,N^4-dimethylbenzene-1,4-diamine] |  |
| −7.60 cm/s | 4.9 µM (≈ 1.92 µg/mL) | Cc1[nH]c2ccccc2c1C(Nc1ccc([N+](=O)[O-])cc1)c1ccccc1Cl (stereo not drawn) [Compound 31f, N-((2-chlorophenyl)(2-methyl-1H-indol-3-yl)methyl)-4-nitroaniline] |  |
| −6.22 cm/s | 59.7 µM (≈ 22.5 µg/mL) | COc1ccccc1NC(c1ccccc1Cl)c1c(C)[nH]c2ccccc12 (stereo not drawn) [Compound 31h, N-((2-chlorophenyl)(2-methyl-1H-indol-3-yl)methyl)-2-methoxyaniline] |  |
| −6.58 cm/s | 15.3 µM (≈ 5.31 µg/mL) | Cn1cc(C(Nc2ccccc2)c2ccccc2Cl)c2ccccc21 (stereo not drawn) [Compound 32a, N-((2-chlorophenyl)(1-methyl-1H-indol-3-yl)methyl)aniline] |  |
| −6.51 cm/s | 52.3 µM (≈ 17.4 µg/mL) | Clc1ccccc1C(Nc1ccccc1)c1c[nH]c2ccccc12 (stereo not drawn) [Compound 32b, N-((2-chlorophenyl)(1H-indol-3-yl)methyl)aniline] | Activation of SAPK/JNK (SKOV-3 cells): did not cause the similar activation; Activation of p38 MAPkinase (SKOV-3 cells): did not cause the similar activation; Cytotoxicity, cell viability (ECC-1): did not show any cytotoxicity; Expression of VDR (VDR in SKOV-3 cells): downregulation of VDR; Cytotoxicity, cell viability (SKOV-3): did not show any cytotoxicity; Cytotoxicity, cell viability (OVCAR-8): did not show any cytotoxicity |
| −6.89 cm/s | 11.8 µM (≈ 4.29 µg/mL) | Cc1[nH]c2ccccc2c1C(Sc1ccccc1)c1ccccc1Cl (stereo not drawn) [Compound 32c, 3-((2-chlorophenyl)(phenylthio)methyl)-2-methyl-1H-indole] |  |
